These are literature values, as cited in patent US8846084B2, “Controlled release compositions containing zolpidem” (Wockhardt Ltd, priority 2005, dated 2014).

For this data set, the target named is T1, (BZ)1 receptor (Homo sapiens, UniProt P14867+P18507).
T1 sequence (P14867 28-456): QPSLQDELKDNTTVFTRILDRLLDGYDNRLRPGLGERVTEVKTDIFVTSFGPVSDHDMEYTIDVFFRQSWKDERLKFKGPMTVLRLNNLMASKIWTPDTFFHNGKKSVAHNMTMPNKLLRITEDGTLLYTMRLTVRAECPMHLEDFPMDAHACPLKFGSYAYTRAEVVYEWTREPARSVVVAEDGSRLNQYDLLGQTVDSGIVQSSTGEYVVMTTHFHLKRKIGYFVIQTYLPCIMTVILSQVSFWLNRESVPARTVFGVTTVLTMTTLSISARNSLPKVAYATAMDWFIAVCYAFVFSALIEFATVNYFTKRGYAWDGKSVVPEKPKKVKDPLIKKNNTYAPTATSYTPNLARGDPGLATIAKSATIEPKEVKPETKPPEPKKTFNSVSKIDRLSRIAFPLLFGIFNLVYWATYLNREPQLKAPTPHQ
T1 sequence (P18507 40-467 limits assumed): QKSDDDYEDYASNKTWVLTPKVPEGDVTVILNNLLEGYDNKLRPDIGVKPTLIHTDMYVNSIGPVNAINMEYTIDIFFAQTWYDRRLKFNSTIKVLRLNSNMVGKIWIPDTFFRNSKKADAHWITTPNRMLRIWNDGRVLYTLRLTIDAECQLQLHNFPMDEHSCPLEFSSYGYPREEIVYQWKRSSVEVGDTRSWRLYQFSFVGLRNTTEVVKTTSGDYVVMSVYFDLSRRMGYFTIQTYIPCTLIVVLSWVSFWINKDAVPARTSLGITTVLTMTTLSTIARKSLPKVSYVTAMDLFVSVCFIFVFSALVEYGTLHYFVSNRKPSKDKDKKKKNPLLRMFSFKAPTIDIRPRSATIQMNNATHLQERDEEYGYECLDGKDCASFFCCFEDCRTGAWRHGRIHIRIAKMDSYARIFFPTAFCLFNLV
T1 sequence (P47870 25-512 partner limits assumed): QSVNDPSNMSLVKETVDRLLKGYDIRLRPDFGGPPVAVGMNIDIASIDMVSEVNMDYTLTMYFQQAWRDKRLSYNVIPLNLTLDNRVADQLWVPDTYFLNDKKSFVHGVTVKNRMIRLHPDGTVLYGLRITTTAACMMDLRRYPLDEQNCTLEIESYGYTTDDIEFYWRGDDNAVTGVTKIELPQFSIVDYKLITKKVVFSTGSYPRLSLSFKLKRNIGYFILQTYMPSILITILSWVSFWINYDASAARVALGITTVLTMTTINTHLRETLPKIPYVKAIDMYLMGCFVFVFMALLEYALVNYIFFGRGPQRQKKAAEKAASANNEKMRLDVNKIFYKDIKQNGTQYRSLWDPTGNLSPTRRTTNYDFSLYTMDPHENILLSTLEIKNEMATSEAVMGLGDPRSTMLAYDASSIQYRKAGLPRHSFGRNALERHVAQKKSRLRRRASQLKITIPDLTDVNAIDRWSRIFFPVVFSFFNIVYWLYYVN
The settings on record: in vitro; affinity ratio of the α1-subunits/α5-subunits.

Consider `Cc1ccc(-c2nc3ccc(C)cn3c2CC(=O)N(C)C)cc1` [zolpidem, N,N,6-trimethyl-2-p-tolylimidazo[1,2-a]pyridine-3-acetamide], for which the “receptor subtype binding preference” value is listed as “binds the (BZ)1 receptor preferentially with a high affinity ratio”.
